Results from patent US6838237B2, “Antigenically reactive regions of the hepatitis a virus polyprotein” (The United States of America as represented by the …, priority 1996, dated 2005).

Key:
anti-HAV-positive sera = assay: EIA for anti-HAV: synthetic peptides adsorbed to wells, reacted with anti-HAV-positive acute sera; assay type: binding, human; conditions: for Reactivity with acute sera (reactive/tested): experiment 1: sera 1:100, anti-human IgG-HRP, cutoff P/N 3.0; for Reactivity with acute sera (percent of sera reactive): experiment 1: sera 1:100, cutoff P/N 3.0; for P/N for acute sera (mean) / P/N for acute sera (range, in parentheses): experiment 1, OD493 positive/negative ratio of reactive sera
Excerpt: (§1) All anti-HAV-positive and anti-HAV-negative sera were randomly selected from a collection reposited at the Centers for Disease Control and Prevention, Atlanta, Ga. Serum specimens were collected from anti-HAV-positive patients with acute liver disease. Anti-HAV-negative serum specimens were collected from normal blood donors. All sera were initially tested by commercially available kit for the presence of anti-HAV activity (HAVAB and HAVAB-M, Abbott Laboratories, Abbott Park, Ill.)
(§2) Synthetic peptides (110 ml) at a concentration of 10 mg/ml in 0.1 M phosphate-buffered saline (PBS), pH 7.5, were adsorbed to microtiter wells (Immulon II, Dynatech Laboratories, Inc.) at room temperature for 12 h. Sera were diluted in PBS containing 0.1% Tween 20 and 10% normal goat serum (PBS-T) and 100 ml were added to each well, incubated for 60 min at 37E C, and washed with PBS containing Tween-20. […] Two different cutoffs were established for experiments 1 and 2. In experiment 1, the cutoff, expressed as a P/N ratio and equal to 3.0, was statistically established as the mean of negative controls plus at least 3.5 standard deviations (SD) above the mean, where P represents the optical density value at 493 nm (OD493) of anti-HAV-positive specimens and N represents the optical density value of negative controls. In experiment 2, a different cutoff was used to ensure statistical reliability and accurate interpretation of positive results. In this case, in addition to anti-HAV-negative sera, two irrelevant synthetic peptides were used as supplemental negative controls to determine the degree of nonspecific binding of anti-HAV sera to synthetic peptides. One cutoff, expressed as a P/N ratio and equal to 3.0, corresponded to the mean of negative serum controls plus at least 3.5 SD above the mean. A second cutoff was also expressed as a P/N ratio, where P represents the optical density value at 493 nm (OD493) for HAV peptides immunoreacting with anti-HAV-positive specimens and N represents the optical density value obtained with the irrelevant peptides. The second cutoff was equal 2.0 and corresponded to the mean of OD values obtained with the irrelevant peptides plus at least 3.5 SD above the mean. Synthetic peptides were considered immunoreactive with anti-HAV serum specimens only when both cutoffs were satisfied.

anti-HAV-negative sera = assay: EIA for anti-HAV: synthetic peptides reacted with anti-HAV-negative sera; assay type: binding, human; conditions: experiment 1: sera 1:100, cutoff P/N 3.0
Excerpt: as §1, §2

Sequence	Reactivity with acute sera (reactive/tested) (anti-HAV-positive sera)	Reactivity with acute sera (percent of sera reactive) (anti-HAV-positive sera) [%]	P/N for acute sera (mean) (anti-HAV-positive sera)	P/N for acute sera (range, in parentheses) (anti-HAV-positive sera)	Reactivity with negative sera (reactive/tested) (anti-HAV-negative sera)	immunoreactivity with anti-HAV-positive sera (in words) (anti-HAV-positive sera)	percent of (IgM) anti-HAV-positive sera immunoreactive with peptide (anti-HAV-positive sera)
RGKGEGLPGMCGGALVSSNQ [YK-1390]	10/41	24.4	6.62	(3.52-13.98)	1/27	–	–
GQKIVDEFKKLGMTATSADK [YK-1428]	1/41	2.4	7.28	–	0/27	–	–
DRTAVTGASYFTSVDQSSVH [YK-1208]	5/41	12.2	4.29	(3.27-5.54)	0/46	–	–
SQGISDDDNDSAVAEFFQSF [YK-1368]	26/41	63.4	9.58	(4.27-19.82)	1/27	–	–
LNMASLEEKGRHFSSPFIIA [YK-1357]	4/48	8.3	4.49	(4.06-4.85)	1/51	–	–
SDPSQGGGIKITHFTTWTSI [YK-1235]	11/46	23.9	4.2	(3.0-4.95)	0/48	–	–
LSFSCYLSVTEQSEFYFPRA [YK-1307]	6/48	12.5	5.88	(4.17-7.64)	0/51	–	–
AGDLESSVDDPRSEEDKRFE [YK-1313]	18/48	37.5	15.79	(3.0-108.06)	3/51	broad and strong antigenic reactivity	–
VMTVEIRKQNMTEFMELWSQ [YK-1367]	9/41	22.0	7.82	(4.18-16.26)	1/41	–	22.0%
FQSFPSGEPSNSKLSGFFQS [YK-1370]	10/41	24.4	8.05	(3.05-18.48)	1/27	–	–
FNASDSVGQQIKVIPVDPYF [YK-1242]	1/41	2.4	3.1	–	0/46	Very weakly reactive	–
SDSVGQQIKVIPVDPYFFQM [YK-1243]	1/41	2.4	3.47	–	0/46	Very weakly reactive	–
KNDGTTVDLTVDQAWRGKGE [YK-1389]	3/41	7.3	10.33	(5.53-18.26)	0/27	–	–
INNVNLYYVFSKIFGKSPVF [YK-1424]	3/41	7.3	6.69	(3.48-10.83)	0/27	–	–
QRLKYAQEELSNEVLPPPRKMKGLF [YK-1665]	–	–	–	–	–	greater immunoreactivity than Peptide No. YK-1317	–
WLNPKKINLADRMLGLSGVQEIKEQ [YK-1757]	–	–	–	–	–	very strong antigenically reactive	–
SAVAEFFQSFPSGEPSNSKLSGFFQ [YK-1832]	–	–	–	–	–	–	about 86.0%
